Assay results reported in patent publication US7256207B2, “Inhibitors of cathepsin S” (IRM LLC, priority 2003, dated 2007).

What was measured:
Format in all cases: biochemical
Cathepsin S = Cathepsin S (Homo sapiens, UniProt P25774); test: Cathepsin S inhibition assay, fluorogenic peptide substrate; details: Cathepsin S inhibition constant; pH5.5, 20 minutes preincubation at room temperature; read-out: Ki Cat. S
Procedure: (§1) The optimal substrate for cathepsin S, acetyl-histidine-proline-valine-lysine-amino carbamoyl coumarin, was identified from screening a combinatorial library of fluorogenic peptide substrates (Harris, J. L., B. J. Backes, et al. Proc Natl Acad Sci U S A 2000, 97(14), 7754-9). Kinetic measurements are performed in a total reaction volume of 30 μl in 384-well microtiter plates. Cathepsin S, at a final concentration of 0.3-3 nM (active site), is incubated with the compounds at twelve varying concentrations in a buffer containing 100 mM NaAc (pH5.5), 1 mM EDTA, 100 mM NaCl, 0.01% Brij-35 for 20 minutes at room temperature. Control reactions in the absence of inhibitor are performed in replicates of 24. The reactions are initiated by adding the substrate, acetyl-histidine-proline-valine-lysine-amino carbamoyl coumarin, to a final concentration of 50 μM. The rate of substrate hydrolysis is measured by monitoring the increase in fluorescence at an excitation wavelength of 380 nm and an emission wavelength of 450 nm that results from cleavage of the aniline bond in the substrate by the enzyme. The apparent inhibition constants for the compounds are determined from the enzyme progress curves (Kuzmic, P., K. C. Elrod, et al. Anal Biochem 2000, 286(1), 45-50) and are then used to calculate the inhibition constants for competitive inhibitors.

Cathepsin K = biological target: T1, Cathepsin K (Homo sapiens, UniProt P43235); test: Cathepsin K inhibition assay, fluorogenic peptide substrate (selectivity for Cat. S over Cat. K); details: ratio of cathepsin K inhibition constant to cathepsin S inhibition constant
T1 sequence (P43235 115-329): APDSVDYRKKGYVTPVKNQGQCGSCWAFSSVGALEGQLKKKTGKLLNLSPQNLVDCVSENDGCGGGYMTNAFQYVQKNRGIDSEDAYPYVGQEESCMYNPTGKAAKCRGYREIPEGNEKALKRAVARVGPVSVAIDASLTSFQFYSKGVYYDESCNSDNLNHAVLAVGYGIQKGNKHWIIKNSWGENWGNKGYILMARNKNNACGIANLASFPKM
Procedure: as §1, with “cathepsin K, acetyl-lysine-histidine-proline-lysine-amino” for “cathepsin S, acetyl-histidine-proline-valine-lysine-amino”, “Cathepsin K,” for “Cathepsin S,”, “of 3.5” for “of 0.3-3”, “substrate, acetyl-lysine-histidine-proline-lysine-amino” for “substrate, acetyl-histidine-proline-valine-lysine-amino”, “of 40” for “of 50”
(§2) Selectivity for cathepsin S in the presence of cathepsin isozymes was determined by the ratio of the cathepsin isozyme inhibition constant of a compound of the present invention to the cathepsin S inhibition constant of the same compound. Preferred compounds of the present invention selective for cathepsin S have ratios of greater than 10. More preferred compounds of the present invention selective for cathepsin S have ratios of greater than 100. Most preferred compounds of the present invention selective for cathepsin S have ratios of greater than 1000.

Cathepsin L = Cathepsin L (Homo sapiens, UniProt P07711); test: Cathepsin L inhibition assay, fluorogenic peptide substrate (selectivity for Cat. S over Cat. L); details: ratio of cathepsin L inhibition constant to cathepsin S inhibition constant
Procedure: as §1, with “cathepsin L, acetyl-histidine-lysine-phenylalanine-lysine-amino” for “cathepsin S, acetyl-histidine-proline-valine-lysine-amino”, “Cathepsin L,” for “Cathepsin S,”, “of 0.1” for “of 0.3-3”, “substrate, acetyl-histidine-lysine-phenylalanine-lysine-amino” for “substrate, acetyl-histidine-proline-valine-lysine-amino”, “of 20” for “of 50”
as §2

Cathepsin B = Cathepsin B (Homo sapiens, UniProt P07858); test: Cathepsin B inhibition assay, fluorogenic peptide substrate (selectivity for Cat. S over Cat. B); details: ratio of cathepsin B inhibition constant to cathepsin S inhibition constant
Procedure: as §1, with “B,” for “S,”, “1.5” for “0.3-3”, “[…].” for “50 μM.”
as §2

Sequence of Cathepsin L (P07711 114-333, species assumed): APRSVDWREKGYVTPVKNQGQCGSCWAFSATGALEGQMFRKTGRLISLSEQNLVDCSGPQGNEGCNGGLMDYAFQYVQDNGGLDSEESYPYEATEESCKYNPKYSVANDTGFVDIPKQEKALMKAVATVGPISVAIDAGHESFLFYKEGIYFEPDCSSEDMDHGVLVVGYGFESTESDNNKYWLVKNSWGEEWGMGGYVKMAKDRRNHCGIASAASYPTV
Sequence of Cathepsin S (P25774 115-331, species assumed): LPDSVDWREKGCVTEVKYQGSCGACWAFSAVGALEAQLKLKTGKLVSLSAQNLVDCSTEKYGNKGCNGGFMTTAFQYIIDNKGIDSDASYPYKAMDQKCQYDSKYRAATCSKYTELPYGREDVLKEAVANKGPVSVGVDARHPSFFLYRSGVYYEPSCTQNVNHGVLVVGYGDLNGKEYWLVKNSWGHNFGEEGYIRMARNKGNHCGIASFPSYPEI

| Compound | Ki (Cathepsin S) | Selectivity for Cat. S over Cat. K (Cathepsin K) | Selectivity for Cat. S over Cat. L (Cathepsin L) | Selectivity for Cat. S over Cat. B (Cathepsin B) |
| --- | --- | --- | --- | --- |
| CC(C)(C)C(Cn1cnc2cc(Cl)c(Cl)cc21)OC(=O)N[C@@H](CO)CN1CCc2cc(F)ccc21 (mixture of isomers) [Example 3, 1-(5,6-Dichloro-benzimidazol-1-ylmethyl)-2,2-dimethyl-propyl [2-(5-fluoro-2,3-dihydro-indol-1-yl)-1-(R)-hydroxymethyl-ethyl]carbamate] | < 100 nM | + (+, >10) | − (−, <10) | + (+, >10) |
| C[C@@H](CN1CC(C)(C)c2cc(F)ccc21)NC(=O)O[C@H](Cn1cnc2ccccc21)CC(C)(C)C [Example 11, 1-(S)-(Benzimidazol-1-ylmethyl-3,3-dimethyl)-butyl [2-(5-fluoro-3,3-dimethyl-2,3-dihydro-indol-1-yl)-1-(S)-methyl-ethyl]carbamate] | < 100 nM | − (−, <10) | ++ (++, >100) | +++ (+++, >1000) |
| C[C@@H](CN1CCc2cc(F)ccc21)NC(=O)O[C@@H](CC1CCCC1)Cn1cnc2ccccc21 [Example 6, 2-(Benzimidazol-1-yl)-1-(S)-cyclopentylmethyl-ethyl [2-(5-fluoro-2,3-dihydro-indol-1-yl)-1-(S)-methyl-ethyl]carbamate] | < 100 nM | + (+, >10) | ++ (++, >100) | +++ (+++, >1000) |
| C[C@@H](CNc1ccc(OC(F)F)cc1)NC(=O)O[C@@H](CC1CCCC1)Cn1ccc(C(F)(F)F)n1 [Example 7, 1-(S)-Cyclopentylmethyl-2-(3-trifluoromethyl-pyrazol-1-yl)-ethyl [2-(4-difluoromethoxy-phenylamino)-1-(S)-methyl-ethyl]carbamate] | < 1000 nM | + (+, >10) | ++ (++, >100) | ++ (++, >100) |
| C[C@@H](CN1CCc2cc(F)ccc21)NC(=O)O[C@H](Cn1cnc2ccccc21)CC(C)(C)C [Example 4, 1-(S)-(Benzimidazol-1-ylmethyl-3,3-dimethyl)-butyl [2-(5-fluoro-2,3-dihydro-indol-1-yl)-1-(S)-methyl-ethyl]carbamate] | < 100 nM | + (+, >10) | ++ (++, >100) | +++ (+++, >1000) |
| CC(C)(C)C[C@H](Cn1cnc2cc(Cl)c(Cl)cc21)OC(=O)N[C@@H](CO)CN1CCc2cc(F)ccc21 [Example 1, 1-(R)-(5,6-Dichloro-benzimidazol-1-ylmethyl)-3,3-dimethyl-butyl [2-(5-fluoro-2,3-dihydro-indol-1-yl)-1-(R)-hydroxymethyl-ethyl]carbamate] | < 10000 nM | − (−, <10) | + (+, >10) | + (+, >10) |
| C[C@@H](CNc1ccc(OC(F)(F)F)cc1)NC(=O)O[C@@H](CC1CCCC1)Cn1cnc2cc(Cl)c(Cl)cc21 [Example 10, 1-(S)-Cyclopentylmethyl-2-(5,6-dichloro-benzimidazol-1-yl)-ethyl [2-(4-trifluoromethoxy-phenylamino)-1-(S)-methyl-ethyl]carbamate] | < 100 nM | + (+, >10) | + (+, >10) | +++ (+++, >1000) |
| CC(C)(C)C[C@@H](Cn1cnc2ccccc21)OC(=O)N[C@@H](CO)CN1CCc2cc(F)ccc21 [Example 12, 1-(S)-(Benzimidazol-1-ylmethyl)-3,3-dimethyl-butyl [2-(5-fluoro-2,3-dihydro-indol-1-yl)-1-(R)-hydroxymethyl-ethyl]carbamate] | < 100 nM | − (−, <10) | ++ (++, >100) | +++ (+++, >1000) |
| CC(C)(C)C[C@@H](Cn1cnc2cc(Cl)c(Cl)cc21)OC(=O)N[C@@H](CO)CN1CCc2cc(F)ccc21 [Example 2, 1-(S)-(5,6-Dichloro-benzimidazol-1-ylmethyl)-3,3-dimethyl-butyl [2-(5-fluoro-2,3-dihydro-indol-1-yl)-1-(R)-hydroxymethyl-ethyl]carbamate] | < 100 nM | ++ (++, >100) | + (+, >10) | +++ (+++, >1000) |
| C[C@@H](CN1CCc2cc(F)ccc21)NC(=O)O[C@H](CN1CCOCC1)CC(C)(C)C [Example 5, 3,3-Dimethyl-(S)-1-morpholin-4-ylmethyl-butyl [2-(5-fluoro-2,3-dihydro-indol-1-yl)-1-(S)-methyl-ethyl]carbamate] | < 1000 nM | − (−, <10) | ++ (++, >100) | ++ (++, >100) |
| C[C@@H](CNc1ccc(OC(F)F)cc1)NC(=O)O[C@@H](CC1CCCC1)Cn1cnc2cc(Cl)c(Cl)cc21 [Example 8, 1-(S)-Cyclopentylmethyl-2-(5,6-dichloro-benzimidazol-1-yl)-ethyl [2-(4-difluoromethoxy-phenylamino)-1-(S)-methyl-ethyl]carbamate] | < 1000 nM | + (+, >10) | ++ (++, >100) | +++ (+++, >1000) |
